Patent US12391683B2, “Therapeutic compounds and methods” (Actio Biosciences, Inc., priority 2022, dated 2025)

Target: T1, TRPC3 channels (Homo sapiens, UniProt Q13507)
T1 construct: expressed in transfected cells; host or cells: HEK293
T1 sequence (Q13507 1-921): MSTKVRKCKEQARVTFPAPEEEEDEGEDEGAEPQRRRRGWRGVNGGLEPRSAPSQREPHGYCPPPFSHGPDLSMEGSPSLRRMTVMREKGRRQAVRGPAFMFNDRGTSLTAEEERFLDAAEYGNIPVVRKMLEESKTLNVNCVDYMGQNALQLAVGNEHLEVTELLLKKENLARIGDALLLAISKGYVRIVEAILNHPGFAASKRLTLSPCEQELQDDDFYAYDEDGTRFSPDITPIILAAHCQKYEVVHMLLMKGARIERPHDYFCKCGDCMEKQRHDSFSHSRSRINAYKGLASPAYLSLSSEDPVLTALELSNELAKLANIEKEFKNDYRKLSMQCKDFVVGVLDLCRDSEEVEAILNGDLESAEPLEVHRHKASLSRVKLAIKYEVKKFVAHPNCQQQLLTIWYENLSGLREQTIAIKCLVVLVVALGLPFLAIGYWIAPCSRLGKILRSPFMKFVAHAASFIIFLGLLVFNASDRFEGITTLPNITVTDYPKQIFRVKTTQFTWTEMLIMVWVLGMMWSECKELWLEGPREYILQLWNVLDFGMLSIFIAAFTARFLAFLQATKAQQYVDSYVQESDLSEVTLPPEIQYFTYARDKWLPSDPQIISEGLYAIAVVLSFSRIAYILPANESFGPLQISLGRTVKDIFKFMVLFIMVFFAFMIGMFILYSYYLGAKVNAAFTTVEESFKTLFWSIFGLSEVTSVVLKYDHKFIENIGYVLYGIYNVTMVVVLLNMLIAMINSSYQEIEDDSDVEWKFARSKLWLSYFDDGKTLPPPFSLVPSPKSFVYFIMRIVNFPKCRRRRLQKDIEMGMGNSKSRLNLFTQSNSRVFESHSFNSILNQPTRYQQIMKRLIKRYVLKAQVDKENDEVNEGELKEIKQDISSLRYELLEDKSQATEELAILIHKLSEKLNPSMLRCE
Test: TRP Family FLIPR Assay, TRPC3
Assay type: cell-based
Conditions: HEK293 cells
Protocol: The compound of Example 5 was tested for selectivity against a panel of Human TRP family ion channels in a TRP Family FLIPR Assay as described below. • 1. TRPC3 channels (human TRPC3 variant 1 gene, expressed in HEK293 cells). • 2. TRPC4 channels (human TRPC4 gene, expressed in HEK293 cells). • 3. TRPC5 channels (human TRPC5 gene, expressed in HEK293 cells). • 4. TRPC6 channels (human TRPC6 gene, expressed in HEK293 cells). • 5. TRPM2 channels (human TRPM2 gene, transiently expressed in HEK293 cells). • 6. TRPM3 channels (human TRPM3 gene, transiently expressed in HEK293 cells). • 7. TRPM4 channels (human TRPM4 gene, expressed in CHO cells). • 8. […]
Data acquisition was performed via the FLIPR Control software supplied with the FLIPR System (MDS-AT) and data was analyzed using Microsoft Excel (Microsoft Corp., Redmond, WA) or GraphPad Prism. […]
[formula] where Base is the response at low concentrations of test article, Max is the maximum response at high concentrations, xhalf the EC50, or IC50, the concentration of test article producing either half-maximal activation or inhibition, and rate is the Hill coefficient. […] No assumptions about the fit parameters was made; the fit parameters were determined by the algorithm.
The effect of each test article was evaluated at eight (8) concentrations: 0.003, 0.01, 0.03, 0.1, 0.3, 1, 3 and 10 μM, n≤4 wells/concentration). […]

CC(C)(O)c1cnc(N2C[C@@]3(CC[C@@H](F)[C@](C)(Cn4cnc5ccc(C#N)cc54)C3)OC2=O)cn1 (single isomer, unassigned) [Example 5]
EC50 (agonist mode, vs EMAX of GSK1702934A 30 μM, read-out: EC50 hTRPC3): > 10 µM | IC50 (antagonist mode, activated with 15 μM GSK1702934A, 0.003-10 μM, read-out: IC50 hTRPC3): > 10 µM
